Data: PubChem BioAssay AID2060506 (Molecular Pharmacology Branch, DTP, NCI, 2025)

Tested on: 598228-144-R-J1-PDC complex spheroid viability
Assay: Anticancer human tumor 598228-144-R-J1-PDC patient-derived serous endometrial adenocarcinoma cell line growth inhibition [GQUAD]
Settings: for IC50: curve of first compound; for viability, T/C: stronger effect = lower value
Method in brief: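 Tumor cells were grown as complex spheroids with HUVEC endothelial cells and mesenchymal stem cells as stroma. G-quadruplex stabilizers were combined with targeted agents over half-log dilutions from near the clinical Cmax, or from 10 microM.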

[1] = second compound 0.0316 µM, first compound 0.0316 µM
[2] = second compound 0.0316 µM, first compound 0.1 µM
[3] = second compound 0.0316 µM, first compound 0.316 µM
[4] = second compound 0.0316 µM, first compound 1 µM
[5] = second compound 0.0316 µM, first compound 3.16 µM
[6] = second compound 0.0316 µM, first compound 10 µM
[7] = second compound 0.1 µM, first compound 0.0316 µM
[8] = second compound 0.1 µM, first compound 0.1 µM
[9] = second compound 0.1 µM, first compound 0.316 µM
[10] = second compound 0.1 µM, first compound 1 µM
[11] = second compound 0.1 µM, first compound 3.16 µM
[12] = second compound 0.1 µM, first compound 10 µM
[13] = second compound 0.316 µM, first compound 0.0316 µM
[14] = second compound 0.316 µM, first compound 0.1 µM
[15] = second compound 0.316 µM, first compound 0.316 µM
[16] = second compound 0.316 µM, first compound 1 µM
[17] = second compound 0.316 µM, first compound 3.16 µM
[18] = second compound 0.316 µM, first compound 10 µM
[19] = second compound 1 µM, first compound 0.0316 µM
[20] = second compound 1 µM, first compound 0.1 µM
[21] = second compound 1 µM, first compound 0.316 µM
[22] = second compound 1 µM, first compound 1 µM
[23] = second compound 1 µM, first compound 3.16 µM
[24] = second compound 1 µM, first compound 10 µM
[25] = second compound 3.16 µM, first compound 0.0316 µM
[26] = second compound 3.16 µM, first compound 0.1 µM
[27] = second compound 3.16 µM, first compound 0.316 µM
[28] = second compound 3.16 µM, first compound 1 µM
[29] = second compound 3.16 µM, first compound 3.16 µM
[30] = second compound 3.16 µM, first compound 10 µM
[31] = second compound 10 µM, first compound 0.0316 µM
[32] = second compound 10 µM, first compound 0.1 µM
[33] = second compound 10 µM, first compound 0.316 µM
[34] = second compound 10 µM, first compound 1 µM
[35] = second compound 10 µM, first compound 3.16 µM
[36] = second compound 10 µM, first compound 10 µM
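Also: spheroids exposed to the agents for one week before reading.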
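For viability, T/C in this document: percent of vehicle DMSO control viability so 100% = untreated growth.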

Cc1cccc(N(C)C(=O)C2C(O)CCN2c2nc(C)cc(C(F)(F)F)c2C#N)c1 (stereo unspecified) + Cc1[nH]c2ccc(F)cc2c1-c1nc2c3cccnc3c3ncccc3c2[nH]1
IC50 (second compound 0.0316 µM): > 10000 nM
IC50 (second compound 0.1 µM): > 10000 nM
IC50 (second compound 0.316 µM): > 10000 nM
IC50 (second compound 1 µM): > 10000 nM
IC50 (second compound 3.16 µM): < 31.6 nM
IC50 (second compound 10 µM): > 10000 nM
viability, T/C [1]: 114%
viability, T/C [2]: 113%
viability, T/C [3]: 112%
viability, T/C [4]: 82%
viability, T/C [5]: 104%
viability, T/C [6]: 100%
viability, T/C [7]: 110%
viability, T/C [8]: 112%
viability, T/C [9]: 98%
viability, T/C [10]: 94.1%
viability, T/C [11]: 104%
viability, T/C [12]: 81.7%
viability, T/C [13]: 99.8%
viability, T/C [14]: 90.3%
viability, T/C [15]: 80.9%
viability, T/C [16]: 79.2%
viability, T/C [17]: 83.9%
viability, T/C [18]: 92.7%
viability, T/C [19]: 58.6%
viability, T/C [20]: 52.7%
viability, T/C [21]: 56.2%
viability, T/C [22]: 45%
viability, T/C [23]: 71.1%
viability, T/C [24]: 57.7%
viability, T/C [25]: 40.8%
viability, T/C [26]: 45.4%
viability, T/C [27]: 52.6%
viability, T/C [28]: 34.9%
viability, T/C [29]: 39.5%
viability, T/C [30]: 36.1%
viability, T/C [31]: 68.4%
viability, T/C [32]: 44.8%
viability, T/C [33]: 53.5%
viability, T/C [34]: 67.3%
viability, T/C [35]: 58%
viability, T/C [36]: 61.6%

C=CCn1c(=O)c2cnc(Nc3ccc(N4CCN(C)CC4)cc3)nc2n1-c1cccc(C(C)(C)O)n1 + CN(C)c1ccc(Nc2c3ccc(NC(=O)CCN4CCCC4)cc3nc3cc(NC(=O)CCN4CCCC4)ccc23)cc1
IC50 (second compound 0.0316 µM): 913 nM
IC50 (second compound 0.1 µM): 1410 nM
IC50 (second compound 0.316 µM): > 10000 nM
IC50 (second compound 1 µM): 2290 nM
IC50 (second compound 3.16 µM): 611 nM
IC50 (second compound 10 µM): 233 nM
viability, T/C [1]: 85.4%
viability, T/C [2]: 99.5%
viability, T/C [3]: 65%
viability, T/C [4]: 44.2%
viability, T/C [5]: 53.7%
viability, T/C [6]: 48.2%
viability, T/C [7]: 109%
viability, T/C [8]: 97%
viability, T/C [9]: 74.4%
viability, T/C [10]: 47%
viability, T/C [11]: 50.9%
viability, T/C [12]: 45.3%
viability, T/C [13]: 107%
viability, T/C [14]: 83.6%
viability, T/C [15]: 54%
viability, T/C [16]: 52.5%
viability, T/C [17]: 51.7%
viability, T/C [18]: 52%
viability, T/C [19]: 103%
viability, T/C [20]: 79.3%
viability, T/C [21]: 67.9%
viability, T/C [22]: 50.8%
viability, T/C [23]: 47.6%
viability, T/C [24]: 47.7%
viability, T/C [25]: 131%
viability, T/C [26]: 88.3%
viability, T/C [27]: 63.3%
viability, T/C [28]: 32.1%
viability, T/C [29]: 46.1%
viability, T/C [30]: 21.9%
viability, T/C [31]: 88.6%
viability, T/C [32]: 72.8%
viability, T/C [33]: 39.8%
viability, T/C [34]: 21.7%
viability, T/C [35]: 8.8%
viability, T/C [36]: 4.75%

Cc1cccc(N(C)C(=O)C2C(O)CCN2c2nc(C)cc(C(F)(F)F)c2C#N)c1 (stereo unspecified) + Cc1cnc(CNC(=O)c2c(=O)c3ccc(N4CCCN(C)CC4)nc3n3c2sc2ccccc23)cn1
IC50 (second compound 0.0316 µM): > 10000 nM
IC50 (second compound 0.1 µM): > 10000 nM
IC50 (second compound 0.316 µM): > 10000 nM
IC50 (second compound 1 µM): > 10000 nM
IC50 (second compound 3.16 µM): > 10000 nM
IC50 (second compound 10 µM): < 31.6 nM
viability, T/C [1]: 92.7%
viability, T/C [2]: 83.7%
viability, T/C [3]: 91%
viability, T/C [4]: 99%
viability, T/C [5]: 112%
viability, T/C [6]: 91.4%
viability, T/C [7]: 76.8%
viability, T/C [8]: 69.3%
viability, T/C [9]: 64.4%
viability, T/C [10]: 67.9%
viability, T/C [11]: 86.6%
viability, T/C [12]: 66.5%
viability, T/C [13]: 63.2%
viability, T/C [14]: 66.6%
viability, T/C [15]: 70.3%
viability, T/C [16]: 63.6%
viability, T/C [17]: 61.3%
viability, T/C [18]: 60.2%
viability, T/C [19]: 68.9%
viability, T/C [20]: 62.5%
viability, T/C [21]: 58.7%
viability, T/C [22]: 61.9%
viability, T/C [23]: 58.3%
viability, T/C [24]: 60.5%
viability, T/C [25]: 52.4%
viability, T/C [26]: 58.3%
viability, T/C [27]: 57.9%
viability, T/C [28]: 44.3%
viability, T/C [29]: 58.7%
viability, T/C [30]: 50.5%
viability, T/C [31]: 55.8%
viability, T/C [32]: 45.7%
viability, T/C [33]: 37.8%
viability, T/C [34]: 46%
viability, T/C [35]: 66.1%
viability, T/C [36]: 36.2%
